Read-outs that look alike come from different tables or passages of the source. One block for each molecule: values may come before it. Where a SMILES comes first, the peptide text is derived from it. Where no end group is shown, it is not given here. Side-chain parts run from the residue outwards. [ ]: non-standard residue; d: D form. Ac6c = NC1(C(=O)O)CCCCC1; Ac3c = NC1(C(=O)O)CC1; Aib = CC(C)(N)C(=O)O; PEG40k = 40 kDa PEG; Sar = CNCC(=O)O
Key:
GLP-1 receptor = target: T1, GLP-1 receptor (Homo sapiens, UniProt P43220); assay: Luciferase-based reporter gene assay for cAMP detection, HEK293 cells co-transfected with GLP-1 receptor (prodrug samples pre-incubated in PBS or plasma); assay type: cell-based
T1 construct: expressed in transfected cells; host or cells: HEK293
T1 sequence (P43220 24-463, species assumed): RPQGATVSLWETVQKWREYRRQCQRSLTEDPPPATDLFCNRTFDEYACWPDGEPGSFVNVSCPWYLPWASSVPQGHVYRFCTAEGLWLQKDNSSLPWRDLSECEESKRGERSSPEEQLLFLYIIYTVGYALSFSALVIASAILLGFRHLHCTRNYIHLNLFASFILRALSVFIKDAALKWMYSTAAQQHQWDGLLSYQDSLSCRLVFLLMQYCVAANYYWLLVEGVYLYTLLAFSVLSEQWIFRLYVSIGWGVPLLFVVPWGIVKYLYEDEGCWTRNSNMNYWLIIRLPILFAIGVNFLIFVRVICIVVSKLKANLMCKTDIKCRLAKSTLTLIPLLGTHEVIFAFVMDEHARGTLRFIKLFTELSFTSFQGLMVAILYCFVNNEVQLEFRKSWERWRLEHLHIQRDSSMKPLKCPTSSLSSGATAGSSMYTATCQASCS

[1] = Dipeptide cleavage half time in PBS on model hexapeptide (HPLC / LC-MS); settings: for Relative peak area(%), HPLC peak a / Relative peak area(%), HPLC peak b: PBS; for Relative peak area(%), HPLC peak a: peak a MW 702; for Relative peak area(%), HPLC peak b: peak b MW 902; for half-life: buffer
[2] = buffer

half-life [1]: 97 h
Molecule: C[C@@H](O)[C@H](NC(=O)CNC(=O)[C@H](CCCNC(=N)N)NC(=O)[C@H](CO)NC(=O)[C@H](Cc1c[nH]cn1)NC(=O)[C@@H](N)Cc1ccc(NC(=O)[C@@H]2CCCN2C(=O)[C@@H]2CCCN2)cc1)C(=O)N[C@@H](Cc1ccccc1)C(N)=O [Compounds 10]

half-life [1]: 33 h
Molecule: C[C@@H](O)[C@H](NC(=O)CNC(=O)[C@H](CCCNC(=N)N)NC(=O)[C@H](CO)NC(=O)[C@H](Cc1c[nH]cn1)NC(=O)[C@@H](N)Cc1ccc(NC(=O)[C@@H]2CCCN2C(=O)[C@@H](N)CCCCN)cc1)C(=O)N[C@@H](Cc1ccccc1)C(N)=O [Compounds 11]

half-life [1]: 11 h
Molecule: C[C@@H](O)[C@H](NC(=O)CNC(=O)[C@H](CCCNC(=N)N)NC(=O)[C@H](CO)NC(=O)[C@H](Cc1c[nH]cn1)NC(=O)[C@@H](N)Cc1ccc(NC(=O)[C@@H]2CCCN2C(=O)[C@H](N)CCCCN)cc1)C(=O)N[C@@H](Cc1ccccc1)C(N)=O [Compounds 12]

half-life [1]: 85 h
Molecule: C[C@@H](O)[C@H](NC(=O)CNC(=O)[C@H](CCCNC(=N)N)NC(=O)[C@H](CO)NC(=O)[C@H](Cc1c[nH]cn1)NC(=O)[C@@H](N)Cc1ccc(NC(=O)[C@@H]2CCCN2C(=O)[C@@H](N)CCC(=O)O)cc1)C(=O)N[C@@H](Cc1ccccc1)C(N)=O [Compounds 13]

half-life [1]: ~1000 h
Molecule: CNCC(=O)N1CCC[C@H]1C(=O)Nc1ccc(C[C@H](N)C(=O)N[C@@H](Cc2c[nH]cn2)C(=O)N[C@@H](CO)C(=O)N[C@@H](CCCNC(=N)N)C(=O)NCC(=O)N[C@H](C(=O)N[C@@H](Cc2ccccc2)C(N)=O)[C@@H](C)O)cc1 [Compounds 14]

half-life [1]: 5 h
Molecule: C[C@@H](O)[C@H](NC(=O)CNC(=O)[C@H](CCCNC(=N)N)NC(=O)[C@H](CO)NC(=O)[C@H](Cc1c[nH]cn1)NC(=O)[C@@H]1CCCN1C(=O)C1(N)CCCCC1)C(=O)N[C@@H](Cc1ccccc1)C(N)=O [Peptide 17] (H-[Ac6c]PHSRGTF-NH2)

half-life [1]: 10 h
Molecule: C[C@@H](O)[C@H](NC(=O)CNC(=O)[C@H](CCCNC(=N)N)NC(=O)[C@H](CO)NC(=O)[C@H](Cc1c[nH]cn1)NC(=O)[C@@H]1CCCN1C(=O)C1(N)CC1)C(=O)N[C@@H](Cc1ccccc1)C(N)=O [Peptide 18] (H-[Ac3c]PHSRGTF-NH2)

The next lines start with the molecule.

Molecule: 40 kPEG-Aib^−1-P^0,C^24GLP(7-36): Aib^−1-P^0,C^24GLP(7-36) pegylated by maleimido-functioned 40 k Da PEG on the SH group of 24-Cys ([Aib]PHAEGTFTSDVSSYLEGQAAKEFIC([maleimide-PEG40k])WLVKGR)
EC50%/STD ratio (GLP-1 receptor; prodrug incubated in PBS at 37° C. for 30 h): 17.31%
EC50%/STD ratio (GLP-1 receptor; prodrug incubated in PBS at 37° C. for 54 h): 27.74%
EC50%/STD ratio (GLP-1 receptor; prodrug incubated in PBS at 37° C. for 240 h): 66.49%
EC50%/STD ratio (GLP-1 receptor; prodrug incubated in PBS at 37° C. for […]): 55.90%

Molecule: C[C@@H](O)[C@H](NC(=O)CNC(=O)[C@H](CCCNC(=N)N)NC(=O)[C@H](CO)NC(=O)[C@H](Cc1c[nH]cn1)NC(=O)CN(C)C(=O)[C@@H](N)CCCCN)C(=O)N[C@@H](Cc1ccccc1)C(N)=O [A peptide, lys-sar-HSRGTF-NH2] (H-K[Sar]HSRGTF-NH2; N-terminus assumed)
Relative peak area(%), HPLC peak a ([1]; 5 h): 26.5%
Relative peak area(%), HPLC peak b ([1]; 5 h): 73.5%
Relative peak area(%), HPLC peak a ([1]; 8 h): 28.9%
Relative peak area(%), HPLC peak b ([1]; 8 h): 71.1%
Relative peak area(%), HPLC peak a ([1]; 24 h): 28.8%
Relative peak area(%), HPLC peak b ([1]; 24 h): 71.2%
Relative peak area(%), HPLC peak a ([1]; 31 h): 77.7%
Relative peak area(%), HPLC peak b ([1]; 31 h): 22.3%
Relative peak area(%), HPLC peak a ([1]; 47 h): 90.0%
Relative peak area(%), HPLC peak b ([1]; 47 h): 10.0%

Molecule: C[C@@H](O)[C@H](NC(=O)CNC(=O)[C@H](CCCNC(=N)N)NC(=O)[C@H](CO)NC(=O)[C@H](Cc1c[nH]cn1)NC(=O)[C@@H](N)Cc1ccc(NC(=O)[C@@H]2CCCN2C(=O)[C@@H](N)Cc2ccccc2)cc1)C(=O)N[C@@H](Cc1ccccc1)C(N)=O [Compounds 1]
half-life [1]: 58 h

Molecule: C[C@@H](O)[C@H](NC(=O)CNC(=O)[C@H](CCCNC(=N)N)NC(=O)[C@H](CO)NC(=O)[C@H](Cc1c[nH]cn1)NC(=O)[C@@H](N)Cc1ccc(NC(=O)[C@@H]2CCCN2C(=O)[C@H](N)Cc2ccccc2)cc1)C(=O)N[C@@H](Cc1ccccc1)C(N)=O [Compounds 3]
half-life [1]: 20 h

Molecule: C[C@@H](O)[C@H](NC(=O)CNC(=O)[C@H](CCCNC(=N)N)NC(=O)[C@H](CO)NC(=O)[C@H](Cc1c[nH]cn1)NC(=O)[C@@H](N)Cc1ccc(NC(=O)[C@H]2CCCN2C(=O)[C@H](N)Cc2ccccc2)cc1)C(=O)N[C@@H](Cc1ccccc1)C(N)=O [Compounds 4]
half-life [1]: 39 h

Molecule: C[C@@H](O)[C@H](NC(=O)CNC(=O)[C@H](CCCNC(=N)N)NC(=O)[C@H](CO)NC(=O)[C@H](Cc1c[nH]cn1)NC(=O)[C@@H](N)Cc1ccc(NC(=O)[C@@H]2CCCN2C(=O)CN)cc1)C(=O)N[C@@H](Cc1ccccc1)C(N)=O [Compounds 5]
half-life [1]: 72 h

Molecule: C[C@@H](O)[C@H](NC(=O)CNC(=O)[C@H](CCCNC(=N)N)NC(=O)[C@H](CO)NC(=O)[C@H](Cc1c[nH]cn1)NC(=O)[C@@H](N)Cc1ccc(NC(=O)[C@@H]2CCCN2C(=O)CO)cc1)C(=O)N[C@@H](Cc1ccccc1)C(N)=O [Compounds 6]
half-life [1]: 603 h

Molecule: CC(C)C[C@H](N)C(=O)N1CCC[C@H]1C(=O)Nc1ccc(C[C@H](N)C(=O)N[C@@H](Cc2c[nH]cn2)C(=O)N[C@@H](CO)C(=O)N[C@@H](CCCNC(=N)N)C(=O)NCC(=O)N[C@H](C(=O)N[C@@H](Cc2ccccc2)C(N)=O)[C@@H](C)O)cc1 [Compounds 7]
half-life [1]: 62 h

Molecule: C[C@@H](O)[C@H](NC(=O)CNC(=O)[C@H](CCCNC(=N)N)NC(=O)[C@H](CO)NC(=O)[C@H](Cc1c[nH]cn1)NC(=O)[C@@H](N)Cc1ccc(NC(=O)[C@@H]2CCCN2C(=O)[C@@H](N)C(C)(C)C)cc1)C(=O)N[C@@H](Cc1ccccc1)C(N)=O [Compounds 8]
half-life [2]: 200 h

Molecule: C[C@@H](O)[C@H](NC(=O)CNC(=O)[C@H](CCCNC(=N)N)NC(=O)[C@H](CO)NC(=O)[C@H](Cc1c[nH]cn1)NC(=O)[C@@H](N)Cc1ccc(NC(=O)[C@@H]2CCCN2C(=O)[C@@H](N)CO)cc1)C(=O)N[C@@H](Cc1ccccc1)C(N)=O [Compounds 9]
half-life [1]: 34 h

Molecule: C[C@@H](O)[C@H](NC(=O)CNC(=O)[C@H](CCCNC(=N)N)NC(=O)[C@H](CO)NC(=O)[C@H](Cc1c[nH]cn1)NC(=O)[C@@H](N)Cc1ccc(NC(=O)[C@@H]2CCCN2C(=O)C(C)(C)N)cc1)C(=O)N[C@@H](Cc1ccccc1)C(N)=O [Compounds 15]
half-life [2]: 1.15 h

Molecule: C[C@@H](O)[C@H](NC(=O)CNC(=O)[C@H](CCCNC(=N)N)NC(=O)[C@H](CO)NC(=O)[C@H](Cc1c[nH]cn1)NC(=O)[C@@H](N)Cc1ccc(NC(=O)[C@@H]2CCCN2C(=O)C(C)(C)O)cc1)C(=O)N[C@@H](Cc1ccccc1)C(N)=O [Compounds 16]
half-life [2]: 33 h

Molecule: C[C@@H](O)[C@H](NC(=O)CNC(=O)[C@H](CCCNC(=N)N)NC(=O)[C@H](CO)NC(=O)[C@H](Cc1c[nH]cn1)NC(=O)[C@@H](N)Cc1ccc(NC(=O)[C@@H]2CCCN2C(=O)C2(N)CCCCC2)cc1)C(=O)N[C@@H](Cc1ccccc1)C(N)=O [Compounds 17]
half-life [2]: 0.1 h
